{"source": "patent US10011813B2", "about": "“Methane oxidation methods and compositions” (California Institute of Technology, priority 2015, dated 2018)", "test_system": "ANME-SRB consortia", "experiment": "FISH-nanoSIMS 15N incorporation (anabolic activity) of ANME-SRB consortia", "assay_type": "cell-based, ANME-2c archaea and Desulfobacteraceae", "protocol": "Incubations for FISH-nanoSIMS and RNA analysis. For AOM incubations with sulfate or AQDS that were used for nanoSIMS (FIG. 7 and FIG. 8A) and RNA analysis (FIG. 6), incubations experiments were set up following the AOM-rate measurements described above (initially containing 1.0 mM ammonium without ^15N label). Methane oxidation rates were tracked in these incubations via the ^13C label. After 11 days, ca. 3.5 mL of supernatant remained in the serum bottles to which 3.0 mL artificial seawater without ammonium containing either 25 mM AQDS, 28 mM sulfate, or no oxidant or electron acceptor was added. Next, 0.1 mL ^15NH4^+ (100 mM) was injected to yield about 2.0 mM ammonium with ca. 75% ^15N. Methane oxidation was monitored. After additional 8 days, the medium of the AQDS incubations was exchanged by 5.0 mL new medium containing 25 mM AQDS and 2.0 mM ^15NH4^+. Now the AQDS incubations contained ca. 95% ^15NH4^+ in the ammonium pool. The cultures were incubated for additional 10 days before harvest. Total incubation time with labeled ammonium: 18 days. Average labeling strength: ca. 75% for sulfate and no oxidant or electron acceptor control; ca. 86% for the AQDS incubations.\nFor the second independent set of experiments with iron citrate, humic acids and sulfate (FIG. 8B), the medium contained 1.0 mM ammonium with ca. 40% ^15N label throughout the incubation period. These experiments were carried out from identical incubations that were for the AOM rate measurements (highlighted in Table 4). In regards to Table 4, the percentage AOM rates are reported relative to sulfate-coupled AOM (1.50 μmol cm^−3 day^−1). Top: Summary of compounds described in FIG. 1B; Bottom: Oxidants or electron acceptors resulting in an AOM rate less than 0.10 μmol […] day^−1 (<7% rel. to sulfate as oxidant or electron acceptor).\nSampling for FISH-nanoSIMS and RNA. After an 18-day incubation in the presence of ^15NH4^+, each incubation was shaken to suspend the sediment and 1.0 mL sediment slurry was sampled using a disposable sterile needle and syringe (ca. 0.3 mL wet sediment). […]\nSample preparation for aggregate embedding, sectioning, FISH, and nanoSIMS. […] Sections of ca. 1 μm thickness were cut and stretched on a water droplet on a polylysine coated slide with teflon wells (Tekdon Inc) and analyzed by fluorescence in situ hybridization (FISH). […]\nFISH conditions and probes. The FISH hybridization on thin sections of resin embedded microbial aggregates followed the recently optimized protocol described in S. E. McGlynn et al. The phylogenetic identity of microorganisms in the thin sections were determined using conventional FISH using oligonucleotide probes fluorescently labeled on both the 5′ and 3′ ends (dual labeled) as outlined herein. […]", "data": [{"smiles": "O=C1c2ccc(S(=O)(=O)O)cc2C(=O)c2ccc(S(=O)(=O)O)cc21", "note": "[AQDS, 9,10-anthraquinone-2,6-disulfonate]", "values": [{"measurement": "doubling time of ANME cells based on average 15N-incorporation", "setting": "18 days with 15NH4+", "value": 3.3, "unit": "months"}, {"measurement": "anabolic activity within ANME-SRB consortia", "setting": "sulfate-free incubations", "value": "occurred only in the ANME archaea"}]}]}
